Measured values: patent publication US20160264684A1, “GLYCAN-INTERACTING COMPOUNDS AND METHODS OF USE” (SIAMAB THERAPEUTICS, INC., priority 2013, published 2016)

Columns and labels:
E3-STn cells = experiment: E3-STn transfected murine breast tumor allograft model, tumor volume; format: in vivo, mouse; conditions: 7G9-1A8 25 mg/kg ip twice weekly 3 weeks, Paclitaxel daily 5 days
Protocol: 3 test articles were evaluated during the study.
Standard deviation values are listed in parenthesis.

[1] = system: STn on bovine submaxillary mucin (BSM); experiment: Anti-STn BSM ELISA; format: binding; conditions: BSM ELISA, sodium periodate treated wells
Protocol: (§1) Anti-STn serum titer is determined using a murine anti-STn bovine submaxillary mucin (BSM) ELISA together with serum profiles observed by glycan microarray. 96-well plates are coated with 1 μg/well of BSM and incubated overnight at 4° C. O-acetylation of BSM antigen is removed by treating wells with 0.1 M sodium hydroxide. Specific binding to STn is determined by treatment of wells with sodium periodate. Periodate treatment destroys the C6 side chain of sialic acid; therefore antibodies raised against STn should not bind to periodate-treated wells. Wells are blocked with PBS 1% ovalbumin (OVA). Serum samples to be assayed are serially diluted in PBS 1% OVA. A commercially available mouse anti-STn monoclonal antibody, 3F1 (SBH Sciences, Natick, Mass.) is used as a positive control. This antibody is also serially diluted in PBS with 1% OVA. A pool of serum from naïve wild type mice is used for the preparation of negative control samples. Detection of anti-STn antibodies present in serum is determined using an HRP-conjugated polyclonal goat anti-mouse IgG antibody (Jackson Immunoresearch, West Grove, Pa.). The reaction is stopped by addition of sulfuric acid (1.6 M). Optical densities are measured at 490 nm using a Spectramax microplate reader (Molecular Devices, Sunnyvale, Calif.). The serum titer is obtained by comparison of OD values with a cutoff value calculated as two standard deviations above the mean of optical density values of the negative control. […]
Binding affinities of 18D2 and 18C7 to STn were compared to commercially available anti-STn antibodies using the BSM ELISA assay described in Example 2. […] Antibody binding was determined using HRP-conjugated polyclonal goat anti-mouse IgG antibody (Jackson Immunoresearch Laboratories, West Grove, Pa.). […] Optical densities were measured at 490 nm using a Spectramax microplate reader. […] The half maximal effective concentration (EC50) for each antibody was calculated using a non-linear regression analysis carried out on periodate subtracted data.

[2] = Glycan array STn specificity and anti-STn antibody group; format: binding; parameters: key to Group: Group 1 antibodies according to the invention are antibodies capable of binding AcSTn and GcSTn; Antibodies were assigned to Group 2 based on their ability to bind STn as well as some related structures that include an O-linkage to serine or threonine; Group 3 antibodies are antibodies capable of binding STn, but may also bind a broader set of related structures; Group 4 antibodies are capable of binding to both AcSTn and GcSTn as well as the un-sialylated Tn antigen; conditions: assigned from flow cytometry and glycan array analysis
Protocol: Optimized glycan arrays comprise 71 chemically synthesized and well-defined glycans, most of which comprise Neu5Ac and Neu5Gc glycan pairs.
300 ml of epoxy blocking buffer is prepared by combining 15 ml of 2 M Tris buffer (pH 8) with 0.9 ml of 16.6 M ethanolamine and 284.1 ml of distilled water. The solution is filtered using a […] nitrocellulose membrane. The epoxy buffer solution as well as 1 L of distilled water are pre-warmed to 50° C. Glass slides are arranged in a slide holder and quickly submerged in a staining tub with the warmed epoxy blocking buffer. Slides are incubated in the epoxy blocking buffer for 1 hour at 50° C. with periodic shaking to deactivate epoxy binding sites. Next, slides are rinsed and blocked with PBS with 1% OVA at 25° C. for one hour. Serum samples are diluted 1:1000 in PBS with 1% OVA and added to the glycan array for one hour at 25° C. After extensive washing, binding of polyclonal serum antibodies are detected by incubating glycan microarray slides with Cy3-conjugated anti-mouse IgG (Jackson Immunoresearch, West Grove, Pa.) for one hour. Slides are then washed extensively, dried and scanned with a Genepix 4000B scanner (Laser at 100%; gain at 350; 10 μm pixels). Raw data from scanned images are extracted using the Genepix software and analysis of raw data is carried out.
Based on characterization data, anti-STn antibodies developed from Group 6 and Group 8 mice were categorized by anti-STn group number. In some cases, antibodies were assigned to Group 1. Group 1 antibodies according to the invention are antibodies capable of binding AcSTn and GcSTn. Such antibodies may have the ability to associate with a wider range of STn structures. The large oval in FIG. 1A indicates the portion of STn recognized by Group 1 antibodies. […] Also listed in the Table is the antibody Isotype for each antibody as determined by the IsoStrip mouse monoclonal antibody isotyping kit (Roche Diagnostics GmbH, Manheim, Germany).

AcSTn-PAA ELISA = format: binding; conditions: 200 ng/well PAA antigen; 1:5 dilutions from 1 μM
Protocol: as §1, with “A commercially available mouse anti-STn monoclonal antibody, 3F1 (SBH Sciences, Natick, Mass.) is used as a positive control. This antibody is also serially diluted in PBS with 1% OVA. A pool of serum from naïve wild type mice is used for the preparation of negative control samples.” left out, “The reaction is stopped by addition of sulfuric acid (1.6 M).” left out
(§2) 18D2 and 18C7 antibodies were further characterized by ELISA comprising antigens other than BSM. […] Binding of anti-STn antibodies was detected using a goat anti-mouse IgG-HRP conjugated antibody (Jackson Immunoresearch Laboratories, West Grove, Pa.). […]

GcSTn-PAA ELISA = format: binding; conditions: 200 ng/well PAA antigen; 1:5 dilutions from 1 μM
Protocol: as §1, with “A commercially available mouse anti-STn monoclonal antibody, 3F1 (SBH Sciences, Natick, Mass.) is used as a positive control. This antibody is also serially diluted in PBS with 1% OVA. A pool of serum from naïve wild type mice is used for the preparation of negative control samples.” left out, “The reaction is stopped by addition of sulfuric acid (1.6 M).” left out
as §2

In the case of `CC(=O)O[C@H]1C(=O)[C@@]2(C)[C@H]([C@H](OC(=O)c3ccccc3)[C@]3(O)C[C@H](OC(=O)[C@H](O)[C@@H](NC(=O)c4ccccc4)c4ccccc4)C(C)=C1C3(C)C)[C@]1(OC(C)=O)CO[C@@H]1C[C@@H]2O` [Paclitaxel, reference compound], the “Average Tumor Volume” value (E3-STn cells; day 1 of treatment) is reported as 112.7 mm^3, the “Average Tumor Volume” value (E3-STn cells; day 4 of treatment) is reported as 179.5 mm^3 and the “Average Tumor Volume” value (E3-STn cells; day 6 of treatment) is reported as 191.4 mm^3. The “Average Tumor Volume” value (E3-STn cells; day 8 of treatment) was 198.6 mm^3, the “Average Tumor Volume” value (E3-STn cells; day 11 of treatment) was 199.8 mm^3 and the “Average Tumor Volume” value (E3-STn cells; day 13 of treatment) was 227.0 mm^3. For the same molecule, the “Average Tumor Volume” value (E3-STn cells; day 15 of treatment) was 248.4 mm^3, the “Average Tumor Volume” value (E3-STn cells; day 18 of treatment) was 290.5 mm^3 and the “Average Tumor Volume” value (E3-STn cells; day 20 of treatment) was 328.2 mm^3. The “Average Tumor Volume” value (E3-STn cells; day 22) was 331.8 mm^3, the “Average Tumor Volume” value (E3-STn cells; day 26) was 344.0 mm^3 and the “Average Tumor Volume” value (E3-STn cells; day 27) was 350.1 mm^3. The “Average Tumor Volume” value (E3-STn cells; day 29) was 352.3 mm^3, the “Average Tumor Volume” value (E3-STn cells; day 32) was 355.1 mm^3 and the “Average Tumor Volume” value (E3-STn cells; day 34) was 358.4 mm^3. The “Average Tumor Volume” value (E3-STn cells; day 36) was 282.0 mm^3, the “Average Tumor Volume” value (E3-STn cells; day 39) was 267.2 mm^3 and the “Average Tumor Volume” value (E3-STn cells; day 41) was 276.4 mm^3.

B1: 18C7: anti-STn monoclonal antibody from mouse #4436; IgG2c κ; SEQ ID NO 4 and 5 (antibody, V domains shown)
VH: QVTLKESGPGILQPSQTLSLTCSFSGFSLSTFGMGVGWIRQPSGKGLEWLAHIWWDDDKYYNPALKSRLTISKDTSKNQVFLKIANVDTADTATYYCARIAYYYGSERDYWGQGTTLTVSS
VL: QIVLTQSPAIMSASPGEKVTMTCSASSSISYMHWYHQKPGTSPKRWIYDTSKLASGVPARFSGSGSGTSYSLTISSMEAEDAATYYCHQRSSYTFGGGTKLEIKR
With B1 the “binding to periodate-treated wells” value [1] was “did not bind” and the Group [2] was 1.

B2: B72.3: commercial anti-STn antibody, TAG-72 clone B72.3 (Thermo Fisher Scientific) (antibody, chains of the INN, looked up, V domains shown)
VH: QVQLQQSDAELVKPGASVKISCKASGYTFTDHAIHWAKQKPEQGLEWIGYISPGNDDIKYNEKFKGKATLTADKSSSTAYMQLNSLTSEDSAVYFCKRSYYGHWGQGTTLTVSS
VL: DIQMTQSPASLSVSVGETVTITCRASENIYSNLAWYQQKQGKSPQLLVYAATNLADGVPSRFSGSGSGTQYSLKINSLQSEDFGSYYCQHFWGTPYTFGGGTRLEIK
In the case of B2, the EC50 (AcSTn-PAA ELISA) is reported as 71.3 nM and the EC50 (GcSTn-PAA ELISA) is reported as 27.8 nM.
